Test results: a compilation of properties of binary mixtures (doi:10.1016/j.molliq.2014.09.055)

Assay: xn = mol fraction of the nth substance listed
Settings: 101 kPa

CCOS(=O)(=O)[O-].CC[n+]1ccn(C)c1 + CC(=O)O
x2 = 0
Settings	speed of sound [m/s]
293.15 K	1693.1
298.15 K	1680.8
303.15 K	1668.5

CCOS(=O)(=O)[O-].CC[n+]1ccn(C)c1 + CCC(=O)O
x2 = 0
Settings	speed of sound [m/s]
293.15 K	1693.1
298.15 K	1680.8

CC(=O)O + CCOS(=O)(=O)[O-].CC[n+]1ccn(C)c1
speed of sound [m/s]
Settings	293.15 K	298.15 K	303.15 K	308.15 K	313.15 K
x1 = 0.0978	–	–	1656.4	1644.2	–
x1 = 0.1993	–	1651.5	1639	1626.6	1614.3
x1 = 0.308	1644.8	1632.2	1619.5	1606.9	1594.4
x1 = 0.4031	1622.3	–	1596.6	–	–
x1 = 0.4737	1603.2	1590.2	1577.1	1564	1551.1
x1 = 0.5975	1560.5	1547.1	1533.6	1520.1	–
x1 = 0.701	1510.8	1497	1483.1	1469.2	1455.5
x1 = 0.8057	–	–	–	1394.1	1379.8
x1 = 0.8973	1339.1	1324	–	1293.3	1278
x1 = 0.9512	–	1237.2	1221	1204.9	1188.8
x1 = 1	1152.7	–	1118.4	1101.2	1084

CCC(=O)O + CCOS(=O)(=O)[O-].CC[n+]1ccn(C)c1
speed of sound [m/s]
Settings	293.15 K	298.15 K	303.15 K	308.15 K	313.15 K
x1 = 0.0818	–	1665.8	1653.5	1641.2	1629.1
x1 = 0.1678	1659.4	1647	1634.6	1622.2	1609.9
x1 = 0.2655	1635.9	–	1610.7	–	1585.6
x1 = 0.3539	1611.6	1598.8	1585.9	–	1566
x1 = 0.4224	1590.3	1577.4	1564.4	1551.4	1538.5
x1 = 0.5516	1542.7	1529.4	1515.9	1502.5	1489.2
x1 = 0.6556	1494.8	1481	1467	1453.1	1439.4
x1 = 0.7707	1421.7	1407.2	1392.4	1377.8	1363.3
x1 = 0.8774	1320.2	1304.5	1288.6	1272.8	–
x1 = 0.9405	1240.4	1223.4	1206.2	–	1172.3
x1 = 1	1164.7	1146	1127.1	1108.3	1089.6
